Measurements as given in patent publication EP4122499A1, “FIBROBLAST ACTIVATION PROTEIN INHIBITORS AND USE THEREOF” (3B Pharmaceuticals GmbH, priority 2021, dated 2023).
Blank lines part the entries; values can stand above or below the molecule they belong to.

Key:
[1] = target: T1, HEK-FAP cells (Homo sapiens, UniProt Q12884); test: LigandTracer assay with 111In-labeled compounds; assay type: binding; settings: 111In-labeled compound; for kon: association rate, read-out: ka
T1 construct: expressed in transfected cells; host or cells: HEK293
T1 sequence (Q12884 1-760): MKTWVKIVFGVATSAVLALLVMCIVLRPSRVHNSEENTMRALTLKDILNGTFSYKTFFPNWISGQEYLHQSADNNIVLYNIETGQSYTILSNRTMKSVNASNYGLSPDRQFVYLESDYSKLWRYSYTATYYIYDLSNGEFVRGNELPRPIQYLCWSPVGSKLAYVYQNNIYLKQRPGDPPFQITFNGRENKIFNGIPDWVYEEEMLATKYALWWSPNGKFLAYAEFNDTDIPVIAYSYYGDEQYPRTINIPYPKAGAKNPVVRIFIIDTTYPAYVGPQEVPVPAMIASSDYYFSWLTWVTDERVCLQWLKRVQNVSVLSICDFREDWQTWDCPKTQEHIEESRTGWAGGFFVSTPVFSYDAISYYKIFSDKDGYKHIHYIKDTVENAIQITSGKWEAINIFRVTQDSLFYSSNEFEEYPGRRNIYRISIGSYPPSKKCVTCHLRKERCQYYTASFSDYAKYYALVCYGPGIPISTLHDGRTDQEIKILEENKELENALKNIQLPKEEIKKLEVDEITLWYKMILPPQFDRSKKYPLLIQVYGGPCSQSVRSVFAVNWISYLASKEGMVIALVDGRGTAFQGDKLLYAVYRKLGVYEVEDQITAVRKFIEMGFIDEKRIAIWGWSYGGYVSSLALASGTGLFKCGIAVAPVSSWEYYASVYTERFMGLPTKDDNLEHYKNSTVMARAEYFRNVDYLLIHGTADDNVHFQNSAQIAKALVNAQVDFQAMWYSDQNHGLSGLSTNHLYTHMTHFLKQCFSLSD
Method: HEK293 cells (human embryonic kidney cells) were engineered to express the human FAP. […] Cell concentrations were adjusted to 3 x 10^5 mL^-1, and 3.000 µL of the suspension was dispensed into a poly-lysine-coated, clear cell dish (10cm). Approximately 24 hours after re-seeding, the medium was replaced by assay medium (Ham's medium with 20 mM HEPES) containing 1 % FCS. The dish was placed in the LigandTracer® device and a baseline measurement was obtained using the LigandTracer® Control software (version 2.4). […] To determine the dissociation rate (kd) the cells were washed and subsequently incubated with fresh assay medium for several hours. […] Table 14 Results of the LigandTracer® assay

[2] = target: T2, Human recombinant FAP (Homo sapiens, UniProt Q12884); test: FRET-based FAP protease activity assay (human); assay type: biochemical; parameters: purchased R&D systems 3715-SE; settings: FRET-peptide substrate, 37°C; for IC50: read-out: pIC50 (Activity) (converted)
T2 sequence (Q12884 1-760): T1 sequence (Q12884 1-760)
Method: (§1) In order to determine the inhibitory activity a FRET-based FAP protease activity assay was established.
25 µL of a 30 µM substrate solution, diluted in assay buffer, was added. […] Four parameter logistic (4PL) curve fitting and pIC50 calculations were performed using ActivityBase software (IDBS).

[3] = target: T3, recombinant human PREP (Homo sapiens, UniProt P48147); test: PREP protease activity assay; assay type: biochemical; settings: 50 µM Z-GP-AMC substrate
T3 construct: purchased R&D systems 4308-SE
T3 sequence (P48147 1-710): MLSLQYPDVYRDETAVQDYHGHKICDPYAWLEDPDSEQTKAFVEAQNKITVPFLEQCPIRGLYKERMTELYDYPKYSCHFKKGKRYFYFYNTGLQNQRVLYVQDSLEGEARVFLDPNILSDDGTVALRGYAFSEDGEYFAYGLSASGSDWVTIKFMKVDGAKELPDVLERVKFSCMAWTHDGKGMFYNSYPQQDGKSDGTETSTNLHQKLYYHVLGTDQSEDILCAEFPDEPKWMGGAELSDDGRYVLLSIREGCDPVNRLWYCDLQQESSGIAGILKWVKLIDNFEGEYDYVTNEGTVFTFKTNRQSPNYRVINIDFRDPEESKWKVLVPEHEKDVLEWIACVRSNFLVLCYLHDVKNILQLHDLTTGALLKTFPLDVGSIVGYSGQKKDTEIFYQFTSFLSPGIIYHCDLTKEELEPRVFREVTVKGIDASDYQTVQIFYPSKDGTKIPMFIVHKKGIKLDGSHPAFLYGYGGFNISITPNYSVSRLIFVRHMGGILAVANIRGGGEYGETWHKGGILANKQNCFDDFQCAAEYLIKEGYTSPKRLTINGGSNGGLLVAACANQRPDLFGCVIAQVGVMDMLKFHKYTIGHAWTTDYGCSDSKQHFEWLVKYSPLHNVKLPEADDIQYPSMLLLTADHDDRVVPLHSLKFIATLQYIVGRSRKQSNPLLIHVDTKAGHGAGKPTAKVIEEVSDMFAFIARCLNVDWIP
Method: (§2) The PREP activity assay was performed using the FACS buffer (PBS including 1% FBS, Sigma-Aldrich, Cat# D8537). […] The DPP4 activity assay was performed in DPP assay buffer (25 mM Tris, pH 8.0).
(§3) Four parameter logistic (4PL) curve fitting and pIC50 calculations were performed using ActivityBase software.

[4] = target: T4, Recombinant mouse FAP (Mus musculus, UniProt P97321); test: FRET-based FAP protease activity assay (mouse); assay type: biochemical; settings: FRET-peptide substrate, 37°C
T4 construct: purchased R&D systems 8647-SE
T4 sequence (P97321 1-761): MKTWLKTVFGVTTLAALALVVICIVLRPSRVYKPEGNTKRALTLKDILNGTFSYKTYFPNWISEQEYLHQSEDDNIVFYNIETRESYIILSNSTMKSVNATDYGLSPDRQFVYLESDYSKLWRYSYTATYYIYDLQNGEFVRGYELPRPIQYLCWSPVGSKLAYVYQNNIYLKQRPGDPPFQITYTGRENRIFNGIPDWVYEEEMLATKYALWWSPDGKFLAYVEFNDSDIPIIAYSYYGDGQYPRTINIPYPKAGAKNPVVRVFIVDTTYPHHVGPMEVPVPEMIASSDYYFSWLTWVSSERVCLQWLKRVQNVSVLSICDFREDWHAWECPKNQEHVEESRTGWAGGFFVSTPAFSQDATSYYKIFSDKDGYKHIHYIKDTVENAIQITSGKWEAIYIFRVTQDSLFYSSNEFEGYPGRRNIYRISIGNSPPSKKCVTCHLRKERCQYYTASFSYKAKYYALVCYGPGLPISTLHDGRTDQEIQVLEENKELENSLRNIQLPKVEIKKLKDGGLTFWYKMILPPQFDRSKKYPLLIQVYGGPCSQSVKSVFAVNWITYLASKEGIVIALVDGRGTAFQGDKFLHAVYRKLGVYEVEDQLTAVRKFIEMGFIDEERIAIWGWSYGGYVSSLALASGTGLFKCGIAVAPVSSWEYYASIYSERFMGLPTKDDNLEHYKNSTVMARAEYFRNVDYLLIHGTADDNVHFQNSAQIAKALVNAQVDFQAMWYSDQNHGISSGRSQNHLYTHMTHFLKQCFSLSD
Method: as §1
25 µL of a 30 µM substrate solution, diluted in assay buffer, was added. […] Four parameter logistic (4PL) curve fitting and pIC50 calculations were performed using ActivityBase software.

[5] = target: T5, FAP-expressing human WI-38 fibroblasts (Homo sapiens, UniProt Q12884); test: Competitive FACS binding assay (displacement of Cy5-labeled FAP inhibitor 3BP-2935); settings: 3 nM Cy5-labeled 3BP-2935, 4°C, 1 hour
T5 construct: FAP-expressing human WI-38 fibroblasts (ECACC 90020107) were cultured in EMEM; host or cells: WI-38 human fibroblasts
T5 sequence (Q12884 1-760): T1 sequence (Q12884 1-760)
Method: In order to determine binding of compounds according to the present invention to FAP-expressing cells, a competitive FACS binding assay was established.
Cells were diluted in FACS buffer to a final concentration of 100.000 cells per ml and 200 µl of the cell suspension are transferred to a u-shaped non-binding 96-well plate (Greiner).
Cell were washed twice with FACS buffer (see above) and resuspended in 200 µl FACS buffer. Cells were analyzed in an Attune NxT flow cytometer (Thermo Fisher Scientific). Median fluorescence intensities (Cy5 channel) was calculated by Attune NxT software and plotted against test compound concentrations. Four parameter logistic (4PL) curve fitting and pIC50 calculations were performed using ActivityBase software.

[6] = target: T6, Recombinant human DPP4 (Homo sapiens, UniProt P27487); test: DPP4 protease activity assay; assay type: biochemical; settings: 20 µM GP-AMC substrate
T6 construct: purchased R&D systems 9168-SE
Method: as §2, §3

[7] = target: T2, Human recombinant FAP; test: Surface plasmon resonance assay (Biacore T200, single cycle kinetics); assay type: binding; settings: SPR, 25°C
Method: Surface plasmon resonance studies were performed using a Biacore™ T200 SPR system (Cytiva, formerly GE Healthcare). Briefly, polarized light is directed towards a gold-labeled sensor surface, and minimum intensity reflected light is detected. The angle of reflected light changes as molecules bind and dissociate. […] Test compounds are contacted with the loaded surface, and a real-time interaction profile with the FAP ligand is recorded in a sensorgram. In real-time, the association and dissociation of a binding interaction is measured, enabling calculation of association and dissociation rate constants and the corresponding affinity constants. Importantly, a background response is generated due to the difference in the refractive indices of the running and sample buffers, as well as unspecific binding of the test compounds to the flow cell surface. This background is measured and subtracted by running the sample on a control flow cell coated with the same density of capture antibody in the absence of immobilized FAP. Furthermore, baseline drift correction of the binding data is performed, which is caused by slow dissociation of the captured FAP from the immobilized antibody. This drift is measured by injecting running buffer through a flow cell with the antibody and FAP immobilized to the sensor surface.
Biacore™ CM5 sensor chips were used. […] A 150 µL aliquot was transferred into plastic vials and placed into the sample rack of the Biacore™ T200 instrument. Amine Coupling Kit Reagent solutions were transferred into plastic vials and placed into the sample rack: 90 µL of 0.4 M 1-ethyl-3-(3-dimethylaminopropyl)carbodiimide (EDC), and 90 µL of 0.1 M N-hydroxysuccinimide (NHS). A 130 µL aliquot of 1 M ethanolamine-HCl, pH 8.5, was transferred into plastic vials and placed into the sample rack. The Biacore™ liquid system was set-up as follows: Separate bottles containing distilled water (1 L), Running Buffer (500 mL), as well as an empty bottle for waste were placed onto the buffer tray. A preinstalled program for immobilization was used, with an immobilization level of 7000 RU. Immobilization was performed at 25°C. The immobilization procedure of anti-FAP antibodies was performed, as described in the Table 5. Table 5: Immobilization protocol for anti-FAP antibodies used on the CM5 sensor chip.
Human recombinant FAP was diluted in Running Buffer to a final concentration of 20 µg/mL. A 100 µL aliquot of human FAP-Working-Solution was transferred into plastic vials and placed into a sample rack. A 0.5 mM Compound-Stock-Solution was prepared by dissolving each compound in DMSO. For each test compound, Compound-Stock-Solutions were diluted in Running Buffer (HBST) at 500 nM and further diluted with HBST-DMSO Buffer (0.1% DMSO). SPR binding analyses for binary complexes were performed in SCK mode at 25°C. Following three SCK measurements, a baseline drift was assessed by injecting running buffer through a flow cell, with the antibody and FAP immobilized to the sensor surface. Table 6: Protocol for assessing the binding kinetics.
For each test compound, SPR raw data in the form of resonance units (RU) were plotted as sensorgrams using the Biacore™ T200 control software. The signal from the blank sensorgram was subtracted from that of the test compound sensorgram (blank corrected). The blank corrected sensorgram was corrected for baseline drift by subtracting the sensorgram of a SCK run without the test compound (running buffer only). The association rate (kon), dissociation rate (koff), dissociation constant (KD), and t1/2 were calculated from Blank-normalized SPR data using the 1:1 Langmuir binding model from the Biacore™ T200 evaluation software. Raw data and fit results were imported as text files in IDBS. The pKD value (negative decadic logarithm of dissociation constant) was calculated in the IDBS excel template.

T6 sequence (P27487 whole entry): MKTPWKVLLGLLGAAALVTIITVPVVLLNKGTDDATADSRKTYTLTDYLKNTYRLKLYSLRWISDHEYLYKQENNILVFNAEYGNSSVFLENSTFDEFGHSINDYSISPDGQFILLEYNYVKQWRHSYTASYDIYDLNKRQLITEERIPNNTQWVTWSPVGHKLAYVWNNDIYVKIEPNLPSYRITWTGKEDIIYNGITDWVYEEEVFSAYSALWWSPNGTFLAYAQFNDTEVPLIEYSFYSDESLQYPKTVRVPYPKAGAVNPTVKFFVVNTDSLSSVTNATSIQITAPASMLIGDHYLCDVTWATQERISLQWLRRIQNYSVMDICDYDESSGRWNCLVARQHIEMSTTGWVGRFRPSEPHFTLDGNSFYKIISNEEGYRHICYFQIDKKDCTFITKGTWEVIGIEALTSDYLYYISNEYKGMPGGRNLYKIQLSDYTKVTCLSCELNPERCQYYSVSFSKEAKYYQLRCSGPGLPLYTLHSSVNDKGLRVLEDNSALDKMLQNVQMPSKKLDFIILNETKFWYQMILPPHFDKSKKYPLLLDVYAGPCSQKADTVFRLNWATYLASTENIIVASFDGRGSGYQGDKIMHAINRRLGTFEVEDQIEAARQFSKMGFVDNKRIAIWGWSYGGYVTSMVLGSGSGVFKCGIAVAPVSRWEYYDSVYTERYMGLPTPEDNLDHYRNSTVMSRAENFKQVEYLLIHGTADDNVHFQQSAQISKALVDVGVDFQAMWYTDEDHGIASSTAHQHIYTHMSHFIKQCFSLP

Structure (SMILES): CN(CCCN1CCN(C(=O)CN2CCN(CC(=O)O)CCN(CC(O)O)CCN(CC(=O)O)CC2)CC1)c1ccc2nccc(C(=O)NCC(=O)N3CC(F)(F)C[C@H]3C#N)c2c1 [Compound 3BP-4200, reference compound]
- HL [1]: 1798 ± 24 min
- pKD [1]: 10.4 ± 0.0

Structure (SMILES): O=C(O)CN1CCN(CC(=O)O)CCN(CC(=O)N2CCN(CCNC(=O)c3ccc(-c4ccc5c(C(=O)NCC(=O)N6CCC[C@H]6C(=O)c6nc7ccccc7o6)ccnc5c4)cc3)CC2)CCN(CC(=O)O)CC1 [Compound 3BP-4665]
- HL [1]: 22 ± 16 min
- pKD [1]: 8.8 ± 0.2
- kon [1]: 220000 M⁻¹ s⁻¹

Structure (SMILES): N#C[C@@H]1CCCN1C(=O)CNC(=O)c1cc[n+]([O-])c2ccccc12
- pIC50 (Activity) [2]: 7.6
- pIC50 (PREP) [3]: 6.3
- pIC50 (DPP4) [6]: <6
- pIC50 (mouseFAP) [4]: 7.5
- pIC50 (FACS) [5]: 7.1

Structure (SMILES): CS(=O)(=O)c1ccc(-c2ccc3c(C(=O)NCC(=O)N4CC(F)(F)C[C@H]4C#N)ccnc3c2)cc1
- pIC50 (Activity) [2]: 9.1
- pIC50 (PREP) [3]: <6
- pIC50 (DPP4) [6]: <6
- pKD (Biacore) ([7]; 1:1 Langmuir binding model): 10
- HL [min] (Biacore) ([7]; half-life): 37 min
- pIC50 (FACS) [5]: 8.5

Other lines, results leading:

- HL [1]: 20 ± 5 min
- pKD [1]: 8.2 ± 0.0
- kon [1]: 94000 M⁻¹ s⁻¹
Structure (SMILES): O=C(O)CN1CCN(CC(=O)O)CCN(CC(=O)N2CCN(CCCOc3ccc4nccc(C(=O)NCC(=O)N5CCC[C@H]5C(=O)c5nc6ccccc6o5)c4c3)CC2)CCN(CC(=O)O)CC1 [Compound 3BP-4808]

- IC50 [2]: 79.4 nM
- IC50 [3]: 1.26 nM
- IC50 ([4]; read-out: pIC50 (mouseFAP) (converted)): 126 nM
- IC50 [5]: 251 nM
Structure (SMILES): Cc1nc(C(=O)[C@@H]2CCCN2C(=O)CNC(=O)c2ccnc3ccccc23)no1

- IC50 [2]: 1.58 nM
- IC50 [3]: > 1000 nM
- IC50 ([6]; read-out: pIC50 (DPP4) (converted)): > 1000 nM
- IC50 [5]: 2.51 nM
Structure (SMILES): N#C[C@@H]1CCCN1C(=O)CNC(=O)c1ccnc2cc(-c3cccc(C(=O)O)c3)ccc12
